The NIST ThermoML archive (doi:10.1021/acs.jced.7b00773)

Conditions: Liquid; for viscosity: Concentric cylinders viscometry

CCCCCCn1cc[n+](C)c1.N#C[B-](C#N)(C#N)C#N [1-hexyl-3-methylimidazolium tetracyanoborate]
100 kPa
Conditions	viscosity [mPa·s]
293.15 K	63.69
303.15 K	38.1
313.15 K	24.73
323.15 K	17.12
333.15 K	12.48
343.15 K	9.467
353.15 K	7.423
363.15 K	5.982
373.15 K	4.929

Conditions	mass density [kg/m3]
293.15 K, 100 kPa, Vibrating tube method	994.4
303.15 K, 100 kPa, Vibrating tube method	987.3
311.8 K, 10000 kPa, Bellows volumetry	986.2
311.8 K, 20000 kPa, Bellows volumetry	991.5
311.8 K, 30000 kPa, Bellows volumetry	996.5
311.8 K, 40000 kPa, Bellows volumetry	1001.3
311.8 K, 50000 kPa, Bellows volumetry	1005.9
311.8 K, 60000 kPa, Bellows volumetry	1010.3
311.8 K, 70000 kPa, Bellows volumetry	1014.5
311.8 K, 80000 kPa, Bellows volumetry	1018.6
311.8 K, 90000 kPa, Bellows volumetry	1022.6
311.8 K, 100000 kPa, Bellows volumetry	1026.5
311.8 K, 110000 kPa, Bellows volumetry	1030.2
311.8 K, 120000 kPa, Bellows volumetry	1034
311.8 K, 130000 kPa, Bellows volumetry	1037.6
311.8 K, 140000 kPa, Bellows volumetry	1041.1
311.8 K, 150000 kPa, Bellows volumetry	1044.6
311.8 K, 160000 kPa, Bellows volumetry	1047.9
311.8 K, 170000 kPa, Bellows volumetry	1051.2
311.8 K, 180000 kPa, Bellows volumetry	1054.4
311.8 K, 190000 kPa, Bellows volumetry	1057.6
311.8 K, 200000 kPa, Bellows volumetry	1060.7
313.15 K, 100 kPa, Vibrating tube method	980.1
323.15 K, 100 kPa, Vibrating tube method	973
331.8 K, 10000 kPa, Bellows volumetry	972.5
331.8 K, 20000 kPa, Bellows volumetry	978.1
331.8 K, 30000 kPa, Bellows volumetry	983.3
331.8 K, 40000 kPa, Bellows volumetry	988.5
331.8 K, 50000 kPa, Bellows volumetry	993.3
331.8 K, 60000 kPa, Bellows volumetry	998
331.8 K, 70000 kPa, Bellows volumetry	1002.3
331.8 K, 80000 kPa, Bellows volumetry	1006.7
331.8 K, 90000 kPa, Bellows volumetry	1010.8
331.8 K, 100000 kPa, Bellows volumetry	1014.9
331.8 K, 110000 kPa, Bellows volumetry	1018.8
331.8 K, 120000 kPa, Bellows volumetry	1022.6
331.8 K, 130000 kPa, Bellows volumetry	1026.4
331.8 K, 140000 kPa, Bellows volumetry	1030
331.8 K, 150000 kPa, Bellows volumetry	1033.5
331.8 K, 160000 kPa, Bellows volumetry	1037
331.8 K, 170000 kPa, Bellows volumetry	1040.4
331.8 K, 180000 kPa, Bellows volumetry	1043.7
331.8 K, 190000 kPa, Bellows volumetry	1047
331.8 K, 200000 kPa, Bellows volumetry	1050.2
333.15 K, 100 kPa, Vibrating tube method	966
343.15 K, 100 kPa, Vibrating tube method	959.1
351.6 K, 10000 kPa, Bellows volumetry	959.1
351.6 K, 20000 kPa, Bellows volumetry	965.1
351.6 K, 30000 kPa, Bellows volumetry	970.6
351.6 K, 40000 kPa, Bellows volumetry	976
351.6 K, 50000 kPa, Bellows volumetry	981
351.6 K, 60000 kPa, Bellows volumetry	985.9
351.6 K, 70000 kPa, Bellows volumetry	990.5
351.6 K, 80000 kPa, Bellows volumetry	995.1
351.6 K, 90000 kPa, Bellows volumetry	999.4
351.6 K, 100000 kPa, Bellows volumetry	1003.6
351.6 K, 110000 kPa, Bellows volumetry	1007.6
351.6 K, 120000 kPa, Bellows volumetry	1011.5
351.6 K, 130000 kPa, Bellows volumetry	1015.4
351.6 K, 140000 kPa, Bellows volumetry	1019.2
351.6 K, 150000 kPa, Bellows volumetry	1022.9
351.6 K, 160000 kPa, Bellows volumetry	1026.4
351.6 K, 170000 kPa, Bellows volumetry	1029.9
351.6 K, 180000 kPa, Bellows volumetry	1033.3
351.6 K, 190000 kPa, Bellows volumetry	1036.7
351.6 K, 200000 kPa, Bellows volumetry	1040
353.15 K, 100 kPa, Vibrating tube method	952.2
363.15 K, 100 kPa, Vibrating tube method	945.4
371.8 K, 10000 kPa, Bellows volumetry	945.8
371.8 K, 20000 kPa, Bellows volumetry	952
371.8 K, 30000 kPa, Bellows volumetry	957.9
371.8 K, 40000 kPa, Bellows volumetry	963.6
371.8 K, 50000 kPa, Bellows volumetry	969
371.8 K, 60000 kPa, Bellows volumetry	974
371.8 K, 70000 kPa, Bellows volumetry	978.8
371.8 K, 80000 kPa, Bellows volumetry	983.6
371.8 K, 90000 kPa, Bellows volumetry	988.1
371.8 K, 100000 kPa, Bellows volumetry	992.4
371.8 K, 110000 kPa, Bellows volumetry	996.7
371.8 K, 120000 kPa, Bellows volumetry	1000.8
371.8 K, 130000 kPa, Bellows volumetry	1004.8
371.8 K, 140000 kPa, Bellows volumetry	1008.7
371.8 K, 150000 kPa, Bellows volumetry	1012.5
371.8 K, 160000 kPa, Bellows volumetry	1016.1
371.8 K, 170000 kPa, Bellows volumetry	1019.7
371.8 K, 180000 kPa, Bellows volumetry	1023.3
371.8 K, 190000 kPa, Bellows volumetry	1026.7
371.8 K, 200000 kPa, Bellows volumetry	1030.1
373.15 K, 100 kPa, Vibrating tube method	938.7
392 K, 10000 kPa, Bellows volumetry	932.8
392 K, 20000 kPa, Bellows volumetry	939.4
392 K, 30000 kPa, Bellows volumetry	945.7
392 K, 40000 kPa, Bellows volumetry	951.6
392 K, 50000 kPa, Bellows volumetry	957.2
392 K, 60000 kPa, Bellows volumetry	962.5
392 K, 70000 kPa, Bellows volumetry	967.6
392 K, 80000 kPa, Bellows volumetry	972.6
392 K, 90000 kPa, Bellows volumetry	977.3
392 K, 100000 kPa, Bellows volumetry	981.8
392 K, 110000 kPa, Bellows volumetry	986.3
392 K, 120000 kPa, Bellows volumetry	990.5
392 K, 130000 kPa, Bellows volumetry	994.6
392 K, 140000 kPa, Bellows volumetry	998.6
392 K, 150000 kPa, Bellows volumetry	1002.5
392 K, 160000 kPa, Bellows volumetry	1006.3
392 K, 170000 kPa, Bellows volumetry	1010
392 K, 180000 kPa, Bellows volumetry	1013.6
392 K, 190000 kPa, Bellows volumetry	1017.2
392 K, 200000 kPa, Bellows volumetry	1020.6
412.1 K, 10000 kPa, Bellows volumetry	920.1
412.1 K, 20000 kPa, Bellows volumetry	927
412.1 K, 30000 kPa, Bellows volumetry	933.7
412.1 K, 40000 kPa, Bellows volumetry	939.9
412.1 K, 50000 kPa, Bellows volumetry	945.8
412.1 K, 60000 kPa, Bellows volumetry	951.4
412.1 K, 70000 kPa, Bellows volumetry	956.7
412.1 K, 80000 kPa, Bellows volumetry	961.8
412.1 K, 90000 kPa, Bellows volumetry	966.8
412.1 K, 100000 kPa, Bellows volumetry	971.4
412.1 K, 110000 kPa, Bellows volumetry	976
412.1 K, 120000 kPa, Bellows volumetry	980.4
412.1 K, 130000 kPa, Bellows volumetry	984.7
412.1 K, 140000 kPa, Bellows volumetry	988.8
412.1 K, 150000 kPa, Bellows volumetry	992.8
412.1 K, 160000 kPa, Bellows volumetry	996.7
412.1 K, 170000 kPa, Bellows volumetry	1000.6
412.1 K, 180000 kPa, Bellows volumetry	1004.3
412.1 K, 190000 kPa, Bellows volumetry	1007.9
412.1 K, 200000 kPa, Bellows volumetry	1011.5
